{"source": "the supplement of paper PMC9663587", "assay_in_all_cases": "GRmax, 72 h; higher = less effect;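 also: breast cell lines in 384-well plates, nine doses across a 10^4 range, Dye Drop imaging of viable cells vs DMSO and time-zero plates, GR 0 means no net growth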", "key": {"[1]": {"system": "SUM52PE"}, "[2]": {"system": "MDAMB361"}, "[3]": {"system": "HCC1937"}, "[4]": {"system": "SUM1315"}, "[5]": {"system": "T47D"}, "[6]": {"system": "MCF12A"}, "[7]": {"system": "SUM149"}, "[8]": {"system": "MGH312"}, "[9]": {"system": "CAMA1"}, "[10]": {"system": "MDAMB231"}, "[11]": {"system": "CAL51"}, "[12]": {"system": "EVSAT"}}}
{"smiles": "C[C@@H]1COCCN1c1cc(C2([S@](C)(=N)=O)CC2)nc(-c2cc[nH]c3nccc2-3)n1", "note": "[AZD6738] (max 10 µM)", "values": [{"measurement": "GRmax, 72 h", "setting": "[1]", "value": -0.174, "unit": "GR"}, {"measurement": "GRmax, 72 h", "setting": "[2]", "value": -0.166, "unit": "GR"}, {"measurement": "GRmax, 72 h", "setting": "[3]", "value": 0.298, "unit": "GR"}, {"measurement": "GRmax, 72 h", "setting": "[4]", "value": -0.169, "unit": "GR"}, {"measurement": "GRmax, 72 h", "setting": "[5]", "value": 0.745, "unit": "GR"}, {"measurement": "GRmax, 72 h", "setting": "[6]", "value": -0.0672, "unit": "GR"}, {"measurement": "GRmax, 72 h", "setting": "[7]", "value": -0.297, "unit": "GR"}, {"measurement": "GRmax, 72 h", "setting": "[8]", "value": 0.348, "unit": "GR"}, {"measurement": "GRmax, 72 h", "setting": "[9]", "value": 0.25, "unit": "GR"}, {"measurement": "GRmax, 72 h", "setting": "[10]", "value": 0.354, "unit": "GR"}, {"measurement": "GRmax, 72 h", "setting": "[11]", "value": 0.0335, "unit": "GR"}, {"measurement": "GRmax, 72 h", "setting": "[12]", "value": 0.742, "unit": "GR"}]}
{"smiles": "NC(=O)Nc1cc(-c2cccc(F)c2)sc1C(=O)N[C@H]1CCCNC1", "note": "[AZD7762] (max 10 µM)", "values": [{"measurement": "GRmax, 72 h", "setting": "[1]", "value": -0.322, "unit": "GR"}, {"measurement": "GRmax, 72 h", "setting": "[2]", "value": -0.675, "unit": "GR"}, {"measurement": "GRmax, 72 h", "setting": "[3]", "value": -0.362, "unit": "GR"}, {"measurement": "GRmax, 72 h", "setting": "[4]", "value": -0.653, "unit": "GR"}, {"measurement": "GRmax, 72 h", "setting": "[5]", "value": -0.0573, "unit": "GR"}, {"measurement": "GRmax, 72 h", "setting": "[6]", "value": -0.211, "unit": "GR"}, {"measurement": "GRmax, 72 h", "setting": "[7]", "value": -0.477, "unit": "GR"}, {"measurement": "GRmax, 72 h", "setting": "[8]", "value": -0.515, "unit": "GR"}, {"measurement": "GRmax, 72 h", "setting": "[9]", "value": -0.0865, "unit": "GR"}, {"measurement": "GRmax, 72 h", "setting": "[10]", "value": -0.463, "unit": "GR"}, {"measurement": "GRmax, 72 h", "setting": "[11]", "value": -0.519, "unit": "GR"}, {"measurement": "GRmax, 72 h", "setting": "[12]", "value": -0.319, "unit": "GR"}]}
{"smiles": "Cc1nc(NC(=O)N2CCC[C@H]2C(N)=O)sc1-c1ccnc(C(C)(C)C(F)(F)F)c1", "note": "[Alpelisib/BYL719] (max 10 µM)", "values": [{"measurement": "GRmax, 72 h", "setting": "[1]", "value": 0.0427, "unit": "GR"}, {"measurement": "GRmax, 72 h", "setting": "[2]", "value": -0.799, "unit": "GR"}, {"measurement": "GRmax, 72 h", "setting": "[3]", "value": 0.658, "unit": "GR"}, {"measurement": "GRmax, 72 h", "setting": "[4]", "value": 0.383, "unit": "GR"}, {"measurement": "GRmax, 72 h", "setting": "[5]", "value": -0.0332, "unit": "GR"}, {"measurement": "GRmax, 72 h", "setting": "[6]", "value": 0.825, "unit": "GR"}, {"measurement": "GRmax, 72 h", "setting": "[7]", "value": 0.848, "unit": "GR"}, {"measurement": "GRmax, 72 h", "setting": "[8]", "value": 0.104, "unit": "GR"}, {"measurement": "GRmax, 72 h", "setting": "[9]", "value": 0.979, "unit": "GR"}, {"measurement": "GRmax, 72 h", "setting": "[10]", "value": 0.69, "unit": "GR"}, {"measurement": "GRmax, 72 h", "setting": "[11]", "value": 0.344, "unit": "GR"}, {"measurement": "GRmax, 72 h", "setting": "[12]", "value": 0.716, "unit": "GR"}]}
{"smiles": "CN(C)C/C=C/C(=O)Nc1ccc(O[C@@H]2CCC[C@@H](Nc3ncc(Cl)c(-c4c[nH]c5ccccc45)n3)C2)cc1", "note": "[BSJ-01-175] (max 10 µM)", "values": [{"measurement": "GRmax, 72 h", "setting": "[1]", "value": -0.673, "unit": "GR"}, {"measurement": "GRmax, 72 h", "setting": "[2]", "value": -0.804, "unit": "GR"}, {"measurement": "GRmax, 72 h", "setting": "[3]", "value": -0.603, "unit": "GR"}, {"measurement": "GRmax, 72 h", "setting": "[4]", "value": -0.864, "unit": "GR"}, {"measurement": "GRmax, 72 h", "setting": "[5]", "value": -0.719, "unit": "GR"}, {"measurement": "GRmax, 72 h", "setting": "[6]", "value": -0.292, "unit": "GR"}, {"measurement": "GRmax, 72 h", "setting": "[7]", "value": -0.617, "unit": "GR"}, {"measurement": "GRmax, 72 h", "setting": "[8]", "value": -0.985, "unit": "GR"}, {"measurement": "GRmax, 72 h", "setting": "[9]", "value": -0.712, "unit": "GR"}, {"measurement": "GRmax, 72 h", "setting": "[10]", "value": -0.562, "unit": "GR"}, {"measurement": "GRmax, 72 h", "setting": "[11]", "value": -0.368, "unit": "GR"}, {"measurement": "GRmax, 72 h", "setting": "[12]", "value": -0.512, "unit": "GR"}]}
{"smiles": "CC(=O)c1c(C)c2cnc(Nc3ccc(N4CCN(CCOCCOCCOCCNC(=O)COc5cccc6c5C(=O)N(C5CCC(=O)NC5=O)C6=O)CC4)cn3)nc2n(C2CCCC2)c1=O", "note": "(configuration not stated) [BSJ-03-123] (max 10 µM)", "values": [{"measurement": "GRmax, 72 h", "setting": "[1]", "value": 0.227, "unit": "GR"}, {"measurement": "GRmax, 72 h", "setting": "[2]", "value": -0.0849, "unit": "GR"}, {"measurement": "GRmax, 72 h", "setting": "[3]", "value": 0.493, "unit": "GR"}, {"measurement": "GRmax, 72 h", "setting": "[4]", "value": 0.236, "unit": "GR"}, {"measurement": "GRmax, 72 h", "setting": "[5]", "value": 0.0948, "unit": "GR"}, {"measurement": "GRmax, 72 h", "setting": "[6]", "value": 0.129, "unit": "GR"}, {"measurement": "GRmax, 72 h", "setting": "[7]", "value": -0.0089, "unit": "GR"}, {"measurement": "GRmax, 72 h", "setting": "[8]", "value": -0.894, "unit": "GR"}, {"measurement": "GRmax, 72 h", "setting": "[9]", "value": 0.0546, "unit": "GR"}, {"measurement": "GRmax, 72 h", "setting": "[10]", "value": -0.181, "unit": "GR"}, {"measurement": "GRmax, 72 h", "setting": "[11]", "value": 0.146, "unit": "GR"}, {"measurement": "GRmax, 72 h", "setting": "[12]", "value": 0.0652, "unit": "GR"}]}
{"smiles": "CC(C)Nc1cc(-c2c[nH]c(C(=O)N[C@H](CO)c3cccc(Cl)c3)c2)c(Cl)cn1", "note": "[BVD523] (max 10 µM)", "values": [{"measurement": "GRmax, 72 h", "setting": "[1]", "value": 0.315, "unit": "GR"}, {"measurement": "GRmax, 72 h", "setting": "[2]", "value": 0.27, "unit": "GR"}, {"measurement": "GRmax, 72 h", "setting": "[3]", "value": 0.534, "unit": "GR"}, {"measurement": "GRmax, 72 h", "setting": "[4]", "value": 0.207, "unit": "GR"}, {"measurement": "GRmax, 72 h", "setting": "[5]", "value": 0.217, "unit": "GR"}, {"measurement": "GRmax, 72 h", "setting": "[6]", "value": 0.104, "unit": "GR"}, {"measurement": "GRmax, 72 h", "setting": "[7]", "value": 0.204, "unit": "GR"}, {"measurement": "GRmax, 72 h", "setting": "[8]", "value": 0.914, "unit": "GR"}, {"measurement": "GRmax, 72 h", "setting": "[9]", "value": 0.156, "unit": "GR"}, {"measurement": "GRmax, 72 h", "setting": "[10]", "value": 0.213, "unit": "GR"}, {"measurement": "GRmax, 72 h", "setting": "[11]", "value": 0.759, "unit": "GR"}, {"measurement": "GRmax, 72 h", "setting": "[12]", "value": 0.695, "unit": "GR"}]}
{"smiles": "Cc1c(N)nc([C@H](CC(N)=O)NC[C@H](N)C(N)=O)nc1C(=O)N[C@H](C(=O)N[C@H](C)[C@@H](O)[C@H](C)C(=O)N[C@H](C(=O)NCCc1nc(-c2nc(C(=O)NCCC[S+](C)C)cs2)cs1)[C@@H](C)O)[C@@H](OC1OC(CO)C(O)C(O)C1OC1OC(CO)C(O)C(OC(N)=O)C1O)c1cnc[nH]1", "note": "(some centres not stated) [Bleomycin] (max 10 µM)", "values": [{"measurement": "GRmax, 72 h", "setting": "[2]; main component drawn", "value": -0.266, "unit": "GR"}, {"measurement": "GRmax, 72 h", "setting": "[3]; main component drawn", "value": 0.139, "unit": "GR"}, {"measurement": "GRmax, 72 h", "setting": "[4]; main component drawn", "value": 0.149, "unit": "GR"}, {"measurement": "GRmax, 72 h", "setting": "[5]; main component drawn", "value": -0.084, "unit": "GR"}, {"measurement": "GRmax, 72 h", "setting": "[7]; main component drawn", "value": -0.315, "unit": "GR"}, {"measurement": "GRmax, 72 h", "setting": "[9]; main component drawn", "value": -0.0365, "unit": "GR"}, {"measurement": "GRmax, 72 h", "setting": "[10]; main component drawn", "value": 0.436, "unit": "GR"}, {"measurement": "GRmax, 72 h", "setting": "[11]; main component drawn", "value": -0.134, "unit": "GR"}]}
{"smiles": "Nc1cc(C(F)(F)F)c(-c2cc(N3CCOCC3)nc(N3CCOCC3)n2)cn1", "note": "[Buparlisib/NVP-BKM120] (max 10 µM)", "values": [{"measurement": "GRmax, 72 h", "setting": "[1]", "value": -0.183, "unit": "GR"}, {"measurement": "GRmax, 72 h", "setting": "[2]", "value": -0.958, "unit": "GR"}, {"measurement": "GRmax, 72 h", "setting": "[3]", "value": -0.226, "unit": "GR"}, {"measurement": "GRmax, 72 h", "setting": "[4]", "value": -0.369, "unit": "GR"}, {"measurement": "GRmax, 72 h", "setting": "[5]", "value": -0.418, "unit": "GR"}, {"measurement": "GRmax, 72 h", "setting": "[6]", "value": -0.113, "unit": "GR"}, {"measurement": "GRmax, 72 h", "setting": "[7]", "value": -0.331, "unit": "GR"}, {"measurement": "GRmax, 72 h", "setting": "[8]", "value": -0.859, "unit": "GR"}, {"measurement": "GRmax, 72 h", "setting": "[9]", "value": -0.422, "unit": "GR"}, {"measurement": "GRmax, 72 h", "setting": "[10]", "value": -0.235, "unit": "GR"}, {"measurement": "GRmax, 72 h", "setting": "[11]", "value": -0.388, "unit": "GR"}, {"measurement": "GRmax, 72 h", "setting": "[12]", "value": -0.499, "unit": "GR"}]}
